Test results: patent US20040266718A1, “Inhibition of specific histone deacetylase isoforms” (priority 2001, published 2004)
d = 2'-deoxy (DNA); m = 2'-O-methyl

Assays:
[1] = tested on: human colon cancer HCT116 cells; assay: MTT assay of cell proliferation; format: cell-based; details: HCT-116, 72 hours
Procedure: Two thousand (2,000) human colon cancer HCT116 cells (ATCC, Manassas, Va. were used in an MTT (3-[4,5-dimethylthiazol-2-yl]-2,5 diphenyl tetrazolium bromide) assay to quantitatively determine cell proliferation and cytotoxicity. Typically, HCT116 cells were plated into each well of the 96-well tissue culture plate and left overnight to attach to the plate. Compounds at various concentrations were added into the culture media (final DMSO concentration 1%) and incubated for 72 hours. MTT solution (obtained from Sigma as powder) was added and incubated with the cells for 4 hours at 37° C. in incubator with 5% CO2. During the incubation, viable cells convert MTT to a water-insoluble formazan dye. Solubilizing buffer (50% N,N-dimethylformamide, 20% SDS, pH 4.7) was added to cells and incubated for overnight at 37C in incubator with 5% CO2. Solubilized dye was quantitated by calorimetric reading at […] using a reference of […]. Optical density values were converted to cell number values by comparison to a standard growth curve for each cell line.

[2] = tested on: Human cancer HCT116 cells; assay: cell cycle arrest by FACS; format: cell-based; details: HCT116, 16 hours; concentration to induce a (G2+M)/S ratio of 2.5
Procedure: Human cancer HCT116 cells were plated at 2×10^5 per 10-cm dish and were left to attach to the dish overnight in the incubator. Cells were treated with small molecule inhibitors at various concentrations (1 uM and 10 uM, typically, dissolved in DMSO) for 16 hours. Cells were harvested by trypsinization and washed once in 1×PBS (phosphate buffered saline). The cells were resuspended in about 200 ul 1×PBS and were fixed by slowly adding 1 ml 70% ethanol at −20° C. and were left at least overnight at −20° C. Fixed cells were centrifuged at low speed (1,000 rpm) for 5 minutes, and the cell pellets were washed again with 1×PBS. Nucleic acids from fixed cells were incubated in a staining solution (0.1% (w/v) glucose in 1×PBS containing 50 ug/ml propidium iodide) (Sigma-Aldridge, Mississauga, Ontario, CA) and RNase A (final 100 units/ml, (Sigma-Aldridge, Mississauga, Ontario, CA) for at least 30 minutes in the dark at 25° C. DNA content was measured by using a fluorescence-activated cell sorter (FACS) machine. Treatment of cells with all HDAC small molecule inhibitors in Table 2 results in a significant accumulation of cancer cell in G2/M phase of the cell cycle and concomitantly reduce the accumulation of cancer cells in S phase of the cell cycle. The ratio of cells in G2/M phase vs. cells in the S. phase was determined. […]

A549 [3] = assay: cell growth analysis (trypan blue cell count), A549; format: cell-based, human; details: 50 nM, 72 hours
Procedure: (§1) Briefly, human A549 and/or T24 human bladder carcinoma cells were seeded in 10 cm tissue culture dishes one day prior to oligonucleotide treatment. The cell lines were obtained from the American Type Culture Collection (ATCC) (Manassas, Va.) and were grown under the recommended culture conditions. Before the addition of the oligonucleotides, cells were washed with PBS (phosphate buffered saline). Next, lipofectin transfection reagent (GIBCO BRL Mississauga, Ontario, Calif.), at a concentration of 6.25 μg/ml, was added to serum free OPTIMEM medium (GIBCO BRL, Rockville, Md.), which was then added to the cells. The oligonucleotides to be screened were then added directly to the cells (i.e., one oligonucleotide per plate of cells). Mismatched oligonucleotides were used as controls. The same concentration of oligonucleotide (e.g., 50 nM) was used per plate of cells for each oligonucleotide tested.
(§2) In order to determine the effect of HDAC OSDNs on cell growth and cell death through apoptosis, A549 or T24 cells, MDAmb231 cells, and HMEC cells (ATCC, Manassas, Va.) were treated with HDAC OSDNs as previously described.
(§3) Cells were harvested and cell numbers counted by trypan blue exclusion using a hemocytometer. Percentage of inhibition was calculated as (100—AS cell numbers/control cell numbers)%.

T24 [4] = assay: cell growth analysis (trypan blue cell count), T24; format: cell-based, human; details: 50 nM, 72 hours
Procedure: as §1, §2, §3

HMEC [5] = assay: cell growth analysis (trypan blue cell count), HMEC; format: cell-based, human; details: 50 nM, 72 hours, normal cells
Procedure: as §1, §2, §3

A549 [6] = assay: apoptosis, Cell Death Detection ELISA, A549; format: cell-based, human; details: OSDN
Procedure: as §2
(§4) For the apoptosis study, cells were analyzed using the Cell Death Detection ELISA^Plus kit (Roche Diagnostic GmBH, Mannheim, Germany) according to the manufacturer's directions. Typically, 10,000 cells were plated in 96-well tissue culture dishes for 2 hours before harvest and lysis. Each sample was analyzed in duplicate. ELISA reading was done using a MR700 plate reader (DYNEX Technology, Ashford, Middlesex, England) at 410 nm. The reference was set at 490 nm.

T24 [7] = assay: apoptosis, Cell Death Detection ELISA, T24; format: cell-based, human; details: OSDN
Procedure: as §2, §4

MDAmb231 [8] = assay: apoptosis, Cell Death Detection ELISA, MDAmb231; format: cell-based, human; details: OSDN
Procedure: as §2, §4

HMEC [9] = assay: apoptosis, Cell Death Detection ELISA, HMEC; format: cell-based, human; details: OSDN, normal cells
Procedure: as §2, §4

human HDAC-6 RNA = assay: antisense screen by Northern blot in T24 cells, HDAC-6; format: cell-based; details: screened as above (T24 cells, 100 nM, 24 hours)
Procedure: Thirteen phosphorothioate ODNs containing sequences complementary to the 5′ or 3′ untranslated regions of the human HDAC-6 gene (GenBank Accession No. AJ011972) were screened as above. […] HDAC-6 MM oligo was created as a control; compared to the antisense oligo, it contains a 7-base mismatch.
as §1
(§5) Cells were harvested, and total RNAs were analyzed by Northern blot analysis. Briefly, total RNA was extracted using RNeasy miniprep columns (QIAGEN). […]

human cancer cells = assay: cell growth and apoptosis of human cancer cells; format: cell-based; details: for growth arrest and apoptosis of human cancer cells: text summary of FIGS. 11-13, Tables 4 and 5
Procedure: as §2, §4, §3

MDAmb231 [10] = assay: cell growth analysis (trypan blue cell count), MDAmb231; format: cell-based, human; details: 50 nM, 72 hours
Procedure: as §1, §2, §3

human HDAC-3 RNA = assay: antisense screen by Northern blot in T24 cells, HDAC-3; format: cell-based; details: screened as above (T24 cells, 100 nM, 24 hours)
Procedure: Twenty-one phosphorothioate ODNs containing sequences complementary to the 5′ or 3′ UTR of the human HDAC-3 gene (GenBank Accession No. AF039703) were screened as above. […] HDAC-3 MM oligonucleotide was created as a control; compared to the antisense oligonucleotide, it contains a 6-base mismatch.
as §1, §5

human HDAC-5 RNA = assay: antisense screen by Northern blot in T24 cells, HDAC-5; format: cell-based; details: screened as above (T24 cells, 100 nM, 24 hours)
Procedure: Thirteen phosphorothioate ODNs containing sequences complementary to the 5′ or 3′ untranslated regions of the human HDAC-5 gene (GenBank Accession No. AF039691) were screened as above.
as §1
Cells were harvested, and total RNAs were analyzed by Northern blot analysis. Briefly, total RNA was extracted using RNeasy miniprep columns (QIAGEN). Ten to twenty μg of total RNA was run on a formaldehyde-containing 1% agarose gel with 0.5 M sodium phosphate (pH 7.0) as the buffer system. […]

human HDAC-1 RNA = assay: antisense screen by Northern blot in T24 cells, HDAC-1; format: cell-based; details: 100 nM, 24 hours
Procedure: as §1
Cells were harvested, and total RNAs were analyzed by Northern blot analysis. Briefly, total RNA was extracted using RNeasy miniprep columns (QIAGEN). Ten to twenty μg of total RNA was run on a formaldehyde-containing 1% agarose gel with 0.5 M sodium phosphate (pH 7.0) as the buffer system. RNAs were then transferred to nitrocellulose membranes and hybridized with the indicated radiolabeled DNA probes. Autoradiography was performed using conventional procedures.

[11] = tested on: cyclin B1 in Human cancer A549 cells; assay: Western blot of cyclin B1 in A549 cells; format: cell-based; details: 48 hours, FIG. 16
Procedure: (§6) Human cancer A549 cells were treated with AS1, AS2 or MM oligo directed human HDAC1 for 48 hours. Total cell lysates were harvested and analyzed by Western blot using antibodies against human HDAC1, cyclin B1, cyclin A and actin (all from Santa Cruz Biotechnology, Inc., Santa Cruz, Calif.). […] (FIG. 16)

[12] = tested on: cyclin A in Human cancer A549 cells; assay: Western blot of cyclin A in A549 cells; format: cell-based; details: 48 hours, FIG. 16
Procedure: as §6

human HDAC-4 RNA = assay: antisense screen by Northern blot in T24 cells, HDAC-4; format: cell-based; details: screened as above (T24 cells, 100 nM, 24 hours)
Procedure: Seventeen phosphorothioate ODNs containing sequences complementary to the 5′ or 3′ UTR of the human HDAC-4 gene (GenBank Accession No. AB006626) were screened as above. […] HDAC-4 MM1 and MM2 oligonucleotides were created as controls; compared to the antisense oligonucleotides, they each contain a 6-base mismatch.
as §1, §5

human HDAC-2 RNA = assay: antisense screen by Northern blot in T24 cells, HDAC-2; format: cell-based; details: screened as above (T24 cells, 100 nM, 24 hours)
Procedure: Twenty-four phosphorothioate ODNs containing sequences complementary to the 5′ or 3′ UTR of the human HDAC-2 gene (GenBank Accession No. U31814) were screened as above. […] HDAC-2 MM was created as a control; compared to the antisense oligo, it contains a 7-base mismatch.
as §1, §5

Molecule: CC(/C=C/C(=O)Nc1ccccc1N)=C\C(C)C(=O)c1ccc(N(C)C)cc1 (stereo not drawn) [Compound 1]
- EC50 [1]: 3 µM
- Cell Cycle Arrest EC [2]: 2 µM

Molecule: HDAC-6 AS: antisense oligonucleotide to human HDAC6, 5′-CAGGCTGGAATGAGCTACAG-3′ (SEQ ID NO:29) (chemistry not given here)
- Growth Inhibition (AS vs. MM) A549 (A549 [3]): − (no inhibition)
- Growth Inhibition (AS vs. MM) T24 (T24 [4]): − (no inhibition)
- Growth Inhibition (AS vs. MM) HMEC (HMEC [5]): − (no inhibition)
- Apoptosis After 48 Hour Treatment A549 (A549 [6]): − (< = 2x fold over non-specific background)
- Apoptosis After 48 Hour Treatment T24 (T24 [7]): − (< = 2x fold over non-specific background)
- Apoptosis After 48 Hour Treatment MDAmb231 (MDAmb231 [8]): − (< = 2x fold over non-specific background)
- Apoptosis After 48 Hour Treatment HMEC (HMEC [9]): − (< = 2x fold over non-specific background)
- antisense activity to human HDAC-6 (RNA expression, Northern blot) (human HDAC-6 RNA): antisense activity
- growth arrest and apoptosis of human cancer cells (human cancer cells): no effect

Molecule: HDAC-3 AS: antisense oligonucleotide to human HDAC3, 5′-CGCTTTCCTTGTCATTGACA-3′ (SEQ ID NO:22) (chemistry not given here)
- Growth Inhibition (AS vs. MM) A549 (A549 [3]): − (no inhibition)
- Growth Inhibition (AS vs. MM) T24 (T24 [4]): − (no inhibition)
- Growth Inhibition (AS vs. MM) MDAmb231 (MDAmb231 [10]): − (no inhibition)
- Growth Inhibition (AS vs. MM) HMEC (HMEC [5]): − (no inhibition)
- Apoptosis After 48 Hour Treatment A549 (A549 [6]): − (< = 2x fold over non-specific background)
- Apoptosis After 48 Hour Treatment T24 (T24 [7]): − (< = 2x fold over non-specific background)
- Apoptosis After 48 Hour Treatment MDAmb231 (MDAmb231 [8]): − (< = 2x fold over non-specific background)
- Apoptosis After 48 Hour Treatment HMEC (HMEC [9]): − (< = 2x fold over non-specific background)
- antisense activity to human HDAC-3 (RNA expression, Northern blot) (human HDAC-3 RNA): antisense activity
- growth arrest and apoptosis of human cancer cells (human cancer cells): no effect

Molecule: HDAC-5 AS: antisense oligonucleotide to human HDAC5, 5′-CTTCGGTCTCACCTGCTTGG-3′ (SEQ ID NO:28) (sugars from the 5' end m4 d12 m4, all phosphorothioate, methylation of C and T or U not given here)
- antisense activity to human HDAC-5 (RNA expression, Northern blot) (human HDAC-5 RNA): antisense activity

Molecule: HDAC-1 AS1: antisense oligonucleotide to human HDAC1, 5′-GAAACGTGAGGGACTCAGCA-3′ (SEQ ID NO:17) (chemistry not given here)
- Apoptosis After 48 Hour Treatment A549 (A549 [6]): + (2-3X fold)
- Apoptosis After 48 Hour Treatment T24 (T24 [7]): − (< = 2x fold over non-specific background)
- Apoptosis After 48 Hour Treatment HMEC (HMEC [9]): − (< = 2x fold over non-specific background)
- antisense activity to human HDAC-1 (RNA expression, Northern blot) (human HDAC-1 RNA): antisense activity
- expression of cyclin B1 [11]: repress expression
- expression of cyclin A [12]: repress expression

Molecule: HDAC-4 AS2: antisense oligonucleotide to human HDAC4, 5′-TACAGTCCATGCAACCTCCA-3′ (SEQ ID NO:26) (sugars from the 5' end m4 d12 m4, all phosphorothioate, methylation of C and T or U not given here)
- antisense activity to human HDAC-4 (RNA expression, Northern blot) (human HDAC-4 RNA): antisense activity

Molecule: HDAC-2 AS: antisense oligonucleotide to human HDAC2, 5′-GCTGAGCTGTTCTGATTTGG-3′ (SEQ ID NO:20) (chemistry not given here)
- Growth Inhibition (AS vs. MM) MDAmb231 (MDAmb231 [10]): − (no inhibition)
- Apoptosis After 48 Hour Treatment A549 (A549 [6]): − (< = 2x fold over non-specific background)
- Apoptosis After 48 Hour Treatment T24 (T24 [7]): − (< = 2x fold over non-specific background)
- Apoptosis After 48 Hour Treatment MDAmb231 (MDAmb231 [8]): − (< = 2x fold over non-specific background)
- Apoptosis After 48 Hour Treatment HMEC (HMEC [9]): − (< = 2x fold over non-specific background)
- antisense activity to human HDAC-2 (RNA expression, Northern blot) (human HDAC-2 RNA): antisense activity
- cancer cell growth inhibition (human cancer cells): minimal effect

Molecule: HDAC-1 AS2: antisense oligonucleotide to human HDAC1, 5′-GGAAGCCAGAGCTGGAGAGG-3′ (SEQ ID NO:18) (chemistry not given here)
- antisense activity to human HDAC-1 (RNA expression, Northern blot) (human HDAC-1 RNA): antisense activity
- expression of cyclin B1 [11]: repress expression
- expression of cyclin A [12]: repress expression
